# Legend:
# Format in all cases: binding
# [1] = biological target: T1, SW480 colon carcinoma cells lysate proteins (Homo sapiens, UniProt Q9Y617); conditions: PreyGene PSAT1
# T1 sequence (Q9Y617 1-370): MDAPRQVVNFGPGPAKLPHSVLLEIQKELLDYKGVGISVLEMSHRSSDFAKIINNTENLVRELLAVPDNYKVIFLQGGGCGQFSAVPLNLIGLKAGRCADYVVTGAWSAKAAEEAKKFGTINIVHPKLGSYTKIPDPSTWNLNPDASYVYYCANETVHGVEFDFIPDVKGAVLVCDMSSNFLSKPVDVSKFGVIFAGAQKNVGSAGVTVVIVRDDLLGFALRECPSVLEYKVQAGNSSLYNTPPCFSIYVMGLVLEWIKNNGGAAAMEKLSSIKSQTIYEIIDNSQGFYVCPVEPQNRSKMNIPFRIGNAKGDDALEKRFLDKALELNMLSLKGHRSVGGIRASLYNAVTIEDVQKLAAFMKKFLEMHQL
# [2] = biological target: SW480 colon carcinoma cells lysate proteins (Homo sapiens, UniProt Q9Y262); conditions: PreyGene EIF3L; SW480 cells
# [3] = biological target: T2, SW480 colon carcinoma cells lysate proteins (Homo sapiens, UniProt P02533); conditions: PreyGene KRT14
# T2 sequence (P02533 1-472): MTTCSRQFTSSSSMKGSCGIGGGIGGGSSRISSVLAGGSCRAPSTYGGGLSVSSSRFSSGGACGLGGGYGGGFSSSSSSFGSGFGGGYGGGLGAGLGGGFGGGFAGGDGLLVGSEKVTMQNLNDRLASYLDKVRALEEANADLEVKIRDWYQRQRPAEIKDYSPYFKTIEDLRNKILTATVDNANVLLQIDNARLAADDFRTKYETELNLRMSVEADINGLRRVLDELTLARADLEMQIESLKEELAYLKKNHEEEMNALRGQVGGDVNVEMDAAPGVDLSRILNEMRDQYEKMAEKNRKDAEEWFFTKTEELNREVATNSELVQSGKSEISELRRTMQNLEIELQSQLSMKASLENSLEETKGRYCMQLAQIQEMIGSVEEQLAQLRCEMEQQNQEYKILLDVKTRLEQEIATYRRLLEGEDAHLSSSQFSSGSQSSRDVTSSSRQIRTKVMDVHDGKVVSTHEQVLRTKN
# [4] = biological target: T3, SW480 colon carcinoma cells lysate proteins (Homo sapiens, UniProt P49458); conditions: PreyGene SRP9
# T3 sequence (P49458 1-86): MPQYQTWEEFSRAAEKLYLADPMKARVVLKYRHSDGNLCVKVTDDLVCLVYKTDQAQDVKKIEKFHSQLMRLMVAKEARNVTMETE
# [5] = biological target: T4, SW480 colon carcinoma cells lysate proteins (Homo sapiens, UniProt Q7KZF4); conditions: PreyGene SND1
# T4 sequence (Q7KZF4 1-910): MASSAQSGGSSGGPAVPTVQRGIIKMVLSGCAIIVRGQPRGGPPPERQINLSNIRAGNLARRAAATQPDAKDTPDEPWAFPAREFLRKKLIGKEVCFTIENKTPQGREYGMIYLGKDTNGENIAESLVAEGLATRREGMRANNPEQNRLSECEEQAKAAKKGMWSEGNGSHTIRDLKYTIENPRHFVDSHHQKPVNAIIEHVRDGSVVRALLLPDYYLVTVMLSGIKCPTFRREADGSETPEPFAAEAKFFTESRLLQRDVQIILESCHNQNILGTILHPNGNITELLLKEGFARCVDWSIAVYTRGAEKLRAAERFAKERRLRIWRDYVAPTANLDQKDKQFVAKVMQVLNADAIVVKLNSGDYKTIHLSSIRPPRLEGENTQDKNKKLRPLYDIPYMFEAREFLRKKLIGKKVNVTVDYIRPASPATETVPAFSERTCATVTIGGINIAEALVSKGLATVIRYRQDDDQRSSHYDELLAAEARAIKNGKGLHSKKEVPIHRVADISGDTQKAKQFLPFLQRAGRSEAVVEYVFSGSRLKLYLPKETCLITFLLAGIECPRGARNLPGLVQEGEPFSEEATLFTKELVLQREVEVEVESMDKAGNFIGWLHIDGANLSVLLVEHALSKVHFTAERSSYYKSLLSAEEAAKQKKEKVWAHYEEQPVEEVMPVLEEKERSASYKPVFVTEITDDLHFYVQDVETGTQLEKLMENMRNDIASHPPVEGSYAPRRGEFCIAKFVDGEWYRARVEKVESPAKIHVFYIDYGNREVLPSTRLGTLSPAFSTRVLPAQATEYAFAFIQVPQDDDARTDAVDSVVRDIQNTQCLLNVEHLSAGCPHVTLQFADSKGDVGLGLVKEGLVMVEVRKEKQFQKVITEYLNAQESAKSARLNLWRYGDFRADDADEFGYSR
# [6] = biological target: T5, SW480 colon carcinoma cells lysate proteins (Homo sapiens, UniProt P10599); conditions: PreyGene TXN
# T5 sequence (P10599 1-105): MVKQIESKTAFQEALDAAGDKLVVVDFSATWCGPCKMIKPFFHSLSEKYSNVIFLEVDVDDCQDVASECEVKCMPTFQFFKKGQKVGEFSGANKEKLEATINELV
# SW480 colon carcinoma cells lysate proteins (Homo sapiens, UniProt Q9Y262), sequence (Q9Y262 whole entry): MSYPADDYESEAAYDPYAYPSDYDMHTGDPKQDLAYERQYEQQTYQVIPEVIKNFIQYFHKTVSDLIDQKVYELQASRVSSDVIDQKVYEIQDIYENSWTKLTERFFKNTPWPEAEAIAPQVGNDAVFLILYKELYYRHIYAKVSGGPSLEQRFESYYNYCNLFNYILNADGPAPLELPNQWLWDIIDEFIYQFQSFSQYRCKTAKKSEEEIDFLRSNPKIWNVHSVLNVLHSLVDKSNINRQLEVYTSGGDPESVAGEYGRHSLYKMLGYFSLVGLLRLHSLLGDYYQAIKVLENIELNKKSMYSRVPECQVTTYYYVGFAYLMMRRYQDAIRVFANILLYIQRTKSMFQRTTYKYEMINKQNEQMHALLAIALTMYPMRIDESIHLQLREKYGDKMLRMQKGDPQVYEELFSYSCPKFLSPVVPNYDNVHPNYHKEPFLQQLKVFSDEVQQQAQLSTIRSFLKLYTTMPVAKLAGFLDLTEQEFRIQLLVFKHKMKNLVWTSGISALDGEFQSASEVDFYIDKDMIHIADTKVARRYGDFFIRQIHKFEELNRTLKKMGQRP
compound,measurement,setting,value
C[C@H](Oc1cc(-c2cnn(C3CCNCC3)c2)cnc1N)c1c(Cl)ccc(F)c1Cl [(5)-crizotinib],AvgP,[1],0.3916
same,SC.Exp. 1-1,[1],3
same,SC.Exp. 1-2,[1],3
same,SC.Exp. 2-1,[1],0
same,SC.Exp. 2-2,[1],0
same,Sum (SC.Exp.),[1],6
same,AvgP,[2],0
same,SC.Exp. 1-1,[2],9
same,SC.Exp. 1-2,[2],7
same,SC.Exp. 2-1,[2],6
same,SC.Exp. 2-2,[2],4
same,SC.Exp. Sum,[2],26
same,AvgP,[3],0.4038
same,SC.Exp. 1-1,[3],4
same,SC.Exp. 1-2,[3],2
same,SC.Exp. 2-1,[3],0
same,SC.Exp. 2-2,[3],0
same,Sum (SC.Exp.),[3],6
same,AvgP,[4],0.2561
same,SC.Exp. 1-1,[4],2
same,SC.Exp. 1-2,[4],1
same,SC.Exp. 2-1,[4],0
same,SC.Exp. 2-2,[4],2
same,Sum (SC.Exp.),[4],5
same,AvgP,[5],0.3957
same,SC.Exp. 1-1,[5],3
same,SC.Exp. 1-2,[5],5
same,SC.Exp. 2-1,[5],0
same,SC.Exp. 2-2,[5],0
same,Sum (SC.Exp.),[5],8
same,AvgP,[6],0.4587
same,SC.Exp. 1-1,[6],4
same,SC.Exp. 1-2,[6],5
same,SC.Exp. 2-1,[6],2
same,SC.Exp. 2-2,[6],1
same,Sum (SC.Exp.),[6],12
